What all share (type): cell-based
The test system of data set [1] is phospho-cJun. The data set is described as follows: DLK-mediated phospho-cJun activation after NGF withdrawal in DRG neurons (Western blot). Particulars: DRG neurons DIV 7, 2.5 μM overnight pretreatment, 2.5 h NGF withdrawal; Bonferroni post-test p<0.01. Here is the method: FIG. 10A depicts an experiment in which dorsal Root Ganglion (DRG) neurons were pretreated at 7 Days in vitro (DIV 7) with 2.5 μM Ketoconazole overnight or 20 μM 2BP for 2 h prior to a 2.5 h NGF withdrawal in presence of the indicated compound. Cells were lysed in SDS-PAGE loading buffer and levels of endogenous DLK, phospho-cJun and tubulin were detected by Western blot.
FIG. 10B depicts quantification of phospho-cJun normalised to -NGF vehicle treated cells. Two-way ANOVA indicates significant effects of interaction (p=0.0071), NGF (p=0.0026) and Ketoconazole (p=0.0001). The effect of Ketoconazole in DRGs undergoing NGF withdrawal was also significant as determined by the Bonferroni post-test (p<0.01). Error bars represent SEM.
On the technique in general: In western blotting, separated proteins are transferred to a membrane and probed.

Data set [2] has as its system GAP43-Myc. Description: Acyl-Biotin Exchange (ABE) palmitoylation assay, GAP43-Myc in HEK293T cells. Particulars: 2.5 μM or 5 μM, 2 h post-transfection for 16-18 h, n=4; ANOVA not significant. Here is the method:
(§1) HEK293T cells were transiently transfected with FIG. 9A) DLK-GFP, FIG. 9B) GAP43-Myc, FIG. 9C) and untagged PSD95 and incubated with 20 μM 2BP, or with 2.5 μM or 5 μM ketoconazole 2 h post-transfection for 16-18 h. Palmitoylation was detected using the ABE assay (left) and quantified from n=4 determinations per condition (right). HAM- includes an equal fraction of all conditions combined. […] One-way ANOVA, Kruskal-Wallis post-hoc analysis; FIG. 9A) ANOVA p=0.0214, h=7.692, FIG. 9B) ANOVA not significant, FIG. 9C) ANOVA p=0.0158, h=8.290. Error bars represent SEM.
(§2) If changes in DLK localization observed by high-content imaging are indeed due to altered DLK palmitoylation then this should also be reflected in biochemical assays of DLK palmitoylation levels. Palmitoylation of numerous proteins, including DLK, has been previously monitored using a non-radioactive palmitoylation assay, Acyl-Biotin Exchange (ABE) (Holland, 2016; Thomas, 2012). ABE uses an exchange of thioester-linked acyl modifications (i.e. palmitoylation), for biotin, with the resultant biotinylated proteins being affinity-purified from cell lysates using neutravidin-conjugated beads. […] WtDLK-GFP was robustly detected in ABE fractions but was absent from controls in which the essential ABE reagent hydroxylamine (NH2OH) was omitted (FIG. 4). […]

In data set [3] the target is T1, DLK-GFP (Homo sapiens, UniProt Q12852).
T1 sequence (Q12852 1-892 isoform Q12852-2): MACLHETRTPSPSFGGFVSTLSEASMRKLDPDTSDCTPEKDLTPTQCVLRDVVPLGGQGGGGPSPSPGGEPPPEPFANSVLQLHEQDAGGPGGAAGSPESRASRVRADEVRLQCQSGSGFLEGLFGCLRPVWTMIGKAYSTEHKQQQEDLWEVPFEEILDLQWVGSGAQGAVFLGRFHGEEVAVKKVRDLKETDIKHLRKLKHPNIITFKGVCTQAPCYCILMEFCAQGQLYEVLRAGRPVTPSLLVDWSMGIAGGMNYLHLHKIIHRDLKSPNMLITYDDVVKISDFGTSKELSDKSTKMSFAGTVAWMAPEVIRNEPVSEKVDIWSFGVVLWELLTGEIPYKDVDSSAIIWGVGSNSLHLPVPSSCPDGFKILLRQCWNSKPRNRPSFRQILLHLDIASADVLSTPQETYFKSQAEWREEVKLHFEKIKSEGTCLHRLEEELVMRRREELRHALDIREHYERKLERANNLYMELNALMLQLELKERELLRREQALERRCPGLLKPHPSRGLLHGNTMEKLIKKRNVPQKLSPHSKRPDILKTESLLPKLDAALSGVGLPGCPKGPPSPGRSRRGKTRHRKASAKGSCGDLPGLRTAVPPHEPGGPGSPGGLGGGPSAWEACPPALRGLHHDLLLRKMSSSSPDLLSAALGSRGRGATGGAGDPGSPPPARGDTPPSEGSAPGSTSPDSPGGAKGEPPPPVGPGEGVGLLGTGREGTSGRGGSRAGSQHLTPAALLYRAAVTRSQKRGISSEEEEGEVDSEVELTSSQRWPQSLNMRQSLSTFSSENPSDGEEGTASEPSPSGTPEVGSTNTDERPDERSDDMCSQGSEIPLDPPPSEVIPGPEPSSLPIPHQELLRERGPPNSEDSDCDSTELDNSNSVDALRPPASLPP
Description: Acyl-Biotin Exchange (ABE) palmitoylation assay, DLK-GFP in HEK293T cells. From the text: FIG. 4 depicts an orthogonal assay to confirm mechanism of action (MOA) of HTS Hits. HEK293T cells were transfected with wt-DLK-GFP or DLK-CS-GFP and palmitoyl-proteins were isolated by Acyl-Biotin Exchange (ABE). Palmitoyl-DLK is robustly detected in ABE fractions but no ABE signal is seen from cells treated with 2-Br, or if DLK's palmitoyl-site is mutated. DLK expressed similarly in all conditions. (Holland, 2016)
(§3) FIG. 8A depicts an experiment in which HEK293T cells transiently transfected with DLK-GFP and mCherry-NLS and subsequently incubated with the indicated concentrations of Ketoconazole or 20 μM 2BP 2 hours post-transfection for 16-18 h. Cells were fixed and stained with DAPI. Scale bar represents 50 μm. FIG. 8B depicts quantified DLK puncta/NLS and nuclear counts (DAPI) from cells transfected as in FIG. 8A and treated with the indicated concentrations of ketoconazole. FIG. 8C depicts an experiment in which transiently transfected HEK293T cells were prepared as in FIG. 8A and palmitoylation (HAM+) was detected using the ABE assay. HAM- sample was generated from an equal fraction of all conditions combined.
HEK293T cells were transiently transfected with FIG. 9A) DLK-GFP, FIG. 9B) GAP43-Myc, FIG. 9C) and untagged PSD95 and incubated with 20 μM 2BP, or with 2.5 μM or 5 μM ketoconazole 2 h post-transfection for 16-18 h. Palmitoylation was detected using the ABE assay (left) and quantified from n=4 determinations per condition (right). HAM- includes an equal fraction of all conditions combined. […]
If changes in DLK localization observed by high-content imaging are indeed due to altered DLK palmitoylation then this should also be reflected in biochemical assays of DLK palmitoylation levels. Palmitoylation of numerous proteins, including DLK, has been previously monitored using a non-radioactive palmitoylation assay, Acyl-Biotin Exchange (ABE) (Holland, 2016; Thomas, 2012). […] WtDLK-GFP was robustly detected in ABE fractions but was absent from controls in which the essential ABE reagent hydroxylamine (NH2OH) was omitted (FIG. 4). […]

Data set [4] deals with PSD95. The data set is described as follows: Acyl-Biotin Exchange (ABE) palmitoylation assay, untagged PSD95 in HEK293T cells. The settings on record: 2.5 μM or 5 μM, 2 h post-transfection for 16-18 h, n=4; ANOVA p=0.0158. The method, then: as §1, §2
The target in data set [5] is T1, DLK-GFP. Description: DLK-GFP puncta / membrane localization in transfected HEK293T cells (high-content imaging, ImageXpress). Here is the method: FIG. 3A: HEK293T cells were transfected with wtDLK-GFP or DLK-CS-GFP and treated 4 h later with 2-Br or vehicle. Top: Live images of GFP fluorescence, acquired 8 h post-transfection. […] FIG. 3B: A subset of cells from FIG. 3A were fixed and immunostained with anti-GFP antibody. Images of GFP fluorescence (n=5 per condition) were analyzed by ImageXpress software. Palmitoylation-dependent differences in number of DLK-GFP puncta are readily detectable.
FIG. 6A depicts HEK293T cells transiently expressing DLK-GFP, fixed and immunostained with antibodies to detect GFP and the Golgi marker GM130. FIG. 6B depicts HEK293T cells, transfected as in FIG. 6A to express either wild type DLK-GFP (DLK-GFP) or a DLK palmitoylation site mutant (C127S-DLK-GFP). […] FIG. 6C depicts results from an experiment in which HEK293T cells were seeded into 12 wells of a 96-well plate and transfected with DLK-GFP and then treated with 2BP or vehicle (6 wells per condition). Cells were fixed in PFA and imaged using an ImageXpress High Content Imaging system to detect GFP signal. Assay quality was determined by calculating the z-prime (z′) for 6 determinations for each of the indicated conditions (z′=S/R, S=[(Mean of Vehicle treated−3×SD)−(Mean of 2BP−3×SD)], R=Vehicle Mean−2BP mean).
(§4) FIG. 7A depicts HEK293T cells co-transfected with DLK-GFP plus mCherry-NLS×3 and then treated with 2BP or vehicle were fixed to detect GFP, mCherry and the nuclear marker DAPI. […] FIG. 7B depicts design of the high-throughput screen for compounds that inhibit DLK-GFP puncta formation. FIG. 7C depicts compounds from the Prestwick Chemical Library™, which were spotted onto 96 well plates at 10 mM per compound in DMSO and diluted in DMEM prior to adding to transfected cells in duplicate at a final concentration of 10 micromolar (similar to the flow chart in FIG. 7B). 16 h later, cells were fixed in 4% PFA and stained with DAPI. High-content imaging was performed using an ImageXPress Image Analysis ‘TransFluor’ and Multi-wavelength scoring (MWS) modules. Data are plotted as total number of puncta (TransFluor Module) per total NLS (MWS module) for each compound. Drugs that decreased the nuclear NLS and/or DAPI markers below 3 times the […] were excluded due to likely toxicity or non-specific effects (plotted in grey). ‘Hits’ were drugs characterised as decreasing all ‘puncta’ readouts by more than 3 times the SD and included in 2 replicates.
as §3
In transfected HEK 293T cells, GFP-tagged wild type DLK (wtDLK-GFP) clearly localizes to intracellular membranes (FIG. 3, top). These membranes are distinct from the vesicles reported in neurons (likely due to different trafficking of DLK in non-neuronal cells) and instead overlap with Golgi markers, likely because many mammalian palmitoyl acyltransferases (PATs) localize to the Golgi (Levy, 2011; Ohno, 2006). […] In identically thresholded images, wtDLK-GFP puncta could be readily observed, that were absent in the 2-Br-treated and DLK-CS-GFP images (FIG. 3A, bottom). It was thus reasoned that this palmitoylation-dependent change in DLK localization should be quantifiable using high-content imaging software. […] High-content imaging detection is thus well suited to identify novel pharmacological inhibitors of DLK palmitoylation.

The subject of data set [6] is HEK293T cells. The data set is described as follows: mCherry-NLS×3 expression and DAPI nuclear signal (toxicity / non-specific effect readout of the screen). Particulars: HEK293T co-transfected with DLK-GFP plus mCherry-NLS×3. The method, then:
as §4

Data set [7] has as its system JNK3 activation by wtDLK-GFP. Description: JNK3 activation by wtDLK-GFP in cotransfected HEK293T cells, detected by phosphoJNK antibody. Particulars: HEK293T cells expressing myc-JNK3 plus wtDLK-GFP; vs EtOH vehicle. The method, then:
FIG. 2A: HEK293T cells expressing myc-JNK3 plus wtDLK-GFP were treated with the palmitoylation inhibitor 2-Bromopalmitate (2-Br) or EtOH (vehicle). […] FIG. 2B: HEK293T cells were transfected with myc-JNK3 plus either wtDLK-GFP or a DLK palmitoyl site mutant (DLK-CS-GFP). Only wtDLK-GFP activates JNK3, as detected by phosphoJNK antibody.

Entries after “also recorded” stand apart in the source; their conditions may differ.

On to `CC(=O)N1CCN(c2ccc(OCC3COC(Cn4ccnc4)(c4ccc(Cl)cc4Cl)O3)cc2)CC1` (centres unmarked) [Ketoconazole], for which the “phospho-cJun normalised to -NGF vehicle treated cells” value in data set [1] is listed as “significantly decreases DLK-mediated phospho-cJun activation; also recorded: significant”. The “palmitoylation of GAP-43 (ABE)” value in data set [2] is “does not affect palmitoylation of GAP-43”. Moreover, the “palmitoylation of DLK (ABE)” value in data set [3] (2.5 μM or 5 μM, 2 h post-transfection for 16-18 h, n=4, ANOVA p=0.0214) is “significantly reduces palmitoylation of DLK”. Further, in data set [3] (HEK293T, compound 2 hours post-transfection for 16-18 h), the “DLK palmitoylation (ABE, HAM+), dose response” value is reported as “inhibits DLK palmitoylation in a dose dependent manner”. For the same molecule, in data set [4], the “palmitoylation of PSD-95 (ABE)” value is “significantly reduces palmitoylation of DLK and PSD-95”. For the same molecule, in data set [5] (10 micromolar final, duplicate, 16 h, 96-well), the “inhibition of DLK-GFP puncta formation (puncta per total NLS), rank in Prestwick Chemical Library screen” value is reported as “most potent compound to inhibit DLK-GFP puncta formation”. The “DLK-GFP puncta (DLK puncta/NLS), dose response” value in data set [5] (HEK293T, DLK-GFP and mCherry-NLS, compound added 2 hours post-transfection for 16-18 h) is “decreases DLK-GFP puncta”.

`CCCCCCCCCCCCCCC(Br)C(=O)O` (centres unmarked) [2-Br, 2-Bromopalmitate]: the “mCherry-NLS×3 expression and DAPI signal” value in data set [6] is “without affecting mCherry-NLS×3 expression or DAPI signal”. In addition, the “palmitoyl-DLK signal in ABE fractions” value in data set [3] (HEK293T transfected with wtDLK-GFP) is “no ABE signal”. Besides, the DLK-GFP puncta result in data set [5] (HEK293T co-transfected with DLK-GFP plus mCherry-NLS×3) is reported as “reduces DLK-GFP puncta”. Further, the “Golgi-associated clusters of DLK-GFP” value in data set [5] (HEK293T transiently expressing DLK-GFP) is recorded as “diffuses the Golgi-associated clusters of DLK-GFP”. In addition, the “DLK localization quantified by ImageXpress 'TransFluor' module (number of DLK-GFP puncta)” value in data set [5] (HEK293T, fixed, anti-GFP immunostained, n=5 images per condition) is listed as “dramatically alters DLK localization”. Besides, the “membrane-localized wtDLK-GFP puncta / DLK-GFP membrane association” value in data set [5] (HEK293T, treated 4 h post-transfection, imaged 8 h post-transfection, thresholded images) is “completely disrupted DLK-GFP membrane association; also recorded: essentially absent”. The “JNK3 activation (phosphorylation) by wtDLK-GFP” value in data set [7] is “blocks JNK3 activation; also recorded: prevented DLK-dependent phosphorylation of JNK3”.

Values taken from US20200166517A1, “Screening Method for Identification of Neuroprotective Compounds” (Temple University-Of The Commonwealth System of Higher …, priority 2017, published 2020).
